Results: patent publication US20130252930A1 (BIOMARIN PHARMACEUTICAL INC., priority 2010, published 2013)
Where two headings read alike, the source gives them in different places.

Columns and labels:
[1] = target: T1, CYP17 (human testicular microsome) (Homo sapiens, UniProt P05093); assay: CYP17 enzymatic assay (IC50) (Biological Example 4); assay type: biochemical; conditions: human testicular microsome
T1 construct: using microsomal fraction from human testis (Celsis Cat #S00110) as the enzyme source; tissue Celsis S00110; host or cells: human testis microsomal fraction
T1 sequence (P05093 1-508): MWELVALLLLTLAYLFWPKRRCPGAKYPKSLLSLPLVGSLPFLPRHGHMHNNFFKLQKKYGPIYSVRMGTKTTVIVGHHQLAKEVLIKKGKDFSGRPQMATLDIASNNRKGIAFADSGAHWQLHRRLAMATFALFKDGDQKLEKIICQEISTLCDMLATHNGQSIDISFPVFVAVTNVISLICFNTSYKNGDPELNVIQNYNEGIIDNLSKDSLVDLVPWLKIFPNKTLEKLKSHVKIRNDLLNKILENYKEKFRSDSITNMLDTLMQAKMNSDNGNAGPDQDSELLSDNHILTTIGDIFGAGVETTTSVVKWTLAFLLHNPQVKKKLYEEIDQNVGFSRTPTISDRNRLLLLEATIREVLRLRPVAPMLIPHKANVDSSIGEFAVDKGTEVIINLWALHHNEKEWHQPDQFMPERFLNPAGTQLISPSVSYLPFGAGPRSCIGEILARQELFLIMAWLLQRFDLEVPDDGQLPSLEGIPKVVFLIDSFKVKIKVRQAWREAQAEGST

CYP17 (H295R cells) = target: T2, CYP17 (H295R cells) (Homo sapiens, UniProt P05093); assay: CYP17 cellular assay (IC50), testosterone in H295R cells (Biological Example 7); assay type: cell-based
T2 construct: endogenous in cells; host or cells: H295R cells
T2 sequence (P05093 1-508): T1 sequence (P05093 1-508)
Protocol: The assays were performed in 96-well plates. Typically H295R cells were seeded at 4.5×10^4 cells/well in 100 μL Growth Medium containing DMEM/F-12 (Gibco/Invitrogen; 11330-032), 2.5% Nu-Serum (BD Bioscience; 355100) and ITS (BD Bioscience; 354352), and cultured at 37° C., 5% CO2 for 24 hr. The next day, media were carefully removed and cells were washed twice with 200 μL 1×HBSS++. Test compounds were then added to the cells at 100, 10, 1, 0.1 nM final concentrations in 125 μL volume per well in serum-free media containing DMEM/F-12 and ITS+ Premix (BD Bioscience; 354352) with 0.1% methanol. Serum-free media with 0.1% methanol without test compound was used as control. Cells were incubated with compounds at 37° C. for additional 24 hours, and the cultured media from each compound treated well was harvested for measurement of testosterone concentration by ELISA according to manufacturer's instruction (Assay Design). Testosterone concentration of each sample was plotted vs. the concentration of the test compounds.

[2] = target: T3, Cyp21 enzyme (Human HEK 293-Cyp21 stable transfected cells) (Homo sapiens, UniProt P08686); assay: CYP21-HEK293 enzymatic assay (IC50) (Biological Example 11); assay type: cell-based; conditions: HEK 293-Cyp21 cells
T3 construct: expressed in transfected cells
T3 sequence (P08686 1-495): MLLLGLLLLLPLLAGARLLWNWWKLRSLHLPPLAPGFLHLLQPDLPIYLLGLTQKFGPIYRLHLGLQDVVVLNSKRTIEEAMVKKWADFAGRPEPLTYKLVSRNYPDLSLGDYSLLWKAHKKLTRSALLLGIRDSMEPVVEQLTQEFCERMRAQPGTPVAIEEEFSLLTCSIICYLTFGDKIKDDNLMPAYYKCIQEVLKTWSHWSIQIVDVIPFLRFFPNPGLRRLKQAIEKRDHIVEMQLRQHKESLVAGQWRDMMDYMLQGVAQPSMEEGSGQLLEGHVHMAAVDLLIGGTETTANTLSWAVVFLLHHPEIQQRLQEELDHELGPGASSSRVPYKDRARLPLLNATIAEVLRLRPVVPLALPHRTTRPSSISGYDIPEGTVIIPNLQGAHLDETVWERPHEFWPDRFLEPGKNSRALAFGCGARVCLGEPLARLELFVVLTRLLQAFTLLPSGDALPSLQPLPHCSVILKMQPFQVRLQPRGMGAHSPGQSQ

[3] = target: T1, CYP17 (human testicular microsome); assay: CYP17 enzymatic assay (% inhibition at 1 nM) (Biological Example 12); assay type: biochemical; conditions: compound at 1 nM
[4] = Human liver microsome stability assay (Biological Example 8b); conditions: liver microsomes, pH 7.4
Protocol: The reaction was started with addition of excess NADPH (5 mg/mL, 15 μL in 0.1 M potassium phosphate buffer, 1.0 mM EDTA, pH 7.4), the total volume is 45 μL (compound final concentration was 1 μM). […] 50 μL of the supernatant was transferred from each well into a 96-well sample plate containing 50 μL of ultra-pure water (Millipore) for LC-MS/MS analysis.

[5] = target: T1, CYP17 (human testicular microsome); assay: CYP17 enzymatic assay (% inhibition at 10 nM), version 1 (Biological Example 5); assay type: biochemical; conditions: 10 nM compound, DHEA by ELISA, read-out: Biological Example No. 5: CYP17 percent inhibition at 10 nM (version 1)
[6] = read-out: Biological Example No. 4: CYP17 enzymatic assay IC50
[7] = H295R cells, testosterone, read-out: Biological Example No. 7: CYP17 cellular assay IC50
[8] = read-out: Biological Example No. 11: CYP21-HEK293 enzymatic assay IC50
[9] = read-out: Biological Example No. 12: CYP17 enzymatic assay % inhibition at 1 nM
[10] = read-out: CYP17 enzymatic assay IC50 (Biological Example No. 4)
[11] = H295R cells, testosterone, read-out: CYP17 cellular assay IC50 (Biological Example No. 7)
[12] = read-out: CYP17 enzymatic assay % inhibition at 1 nM (Biological Example No. 12)

| SMILES | IC50 [1, 6] [nM] | IC50 (CYP17 (H295R cells); [7]) [nM] | IC50 [2, 8] [nM] | inhibition at 0.001 µM [3, 9] [%] | half-life at 1 μM [4] [min] | other results |
| --- | --- | --- | --- | --- | --- | --- |
| CC1=C2CC[C@@H]3[C@H](CC[C@]4(C)C(c5cccnc5)=CC[C@@H]34)[C@@]2(C)CCC1=O [Compound 300, (10R,13S)-4,10,13-trimethyl-17-(pyridin-3-yl)-6,7,8,9,10,11,12,13,14,15-decahydro-1H-cyclopenta[a]phenanthren-3(2H)-one] | < 11 | < 15 | > 1000 | > 50 | – | – |
| C[C@]12CCC(=O)C=C1C1(CC1)C[C@@H]1[C@@H]2CC[C@]2(C)C(c3cccnc3)=CC[C@@H]12 [Compound 313, (10R,13S)-10,13-dimethyl-17-(pyridin-3-yl)-1,7,8,9,10,11,12,13,14,15-decahydrospiro[cyclopenta[a]phenanthrene-6,1′-cyclopropan]-3(2H)-one] | – | – | – | – | 1 to 50 | IC50 [1, 10]: < 11 nM; IC50 (CYP17 (H295R cells); [11]): < 15 nM; IC50 ([2]; read-out: CYP21-HEK293 enzymatic assay IC50 (Biological Example No. 11)): < 10 nM; inhibition at 0.001 µM [3, 12]: > 50% |
| C[C@]12CC[C@H]3[C@@H](CC=C4C[C@@H](O)CC[C@@]43C)C1=CC=C2c1cncc(F)c1 [Compound 271, (3S,10R,13S)-17-(5-fluoropyridin-3-yl)-10,13-dimethyl-2,3,4,7,8,9,10,11,12,13-decahydro-1H-cyclopenta[a]phenanthren-3-ol] | < 11 | < 15 | – | > 50 | 1 to 50 | – |
| CC(=O)N[C@@H]1CC[C@@]2(C)C(=CCC3C2CC[C@]2(C)C(c4cccnc4)=CCC32)C1 (stereo partly drawn) [Compound 223, N-((3R,10R,13S)-10,13-dimethyl-17-(pyridin-3-yl)-2,3,4,7,8,9,10,11,12,13,14,15-dodecahydro-1H-cyclopenta[a]phenanthren-3-yl)acetamide] | – | – | – | – | 1 to 50 | IC50 [1, 10]: < 11 nM; IC50 (CYP17 (H295R cells); [11]): < 15 nM; inhibition at 0.001 µM [3, 12]: > 50% |
| C[C@]12CC[C@H](O)CC1=CCC1C2CC[C@]2(C)C(c3cncc(C(F)F)c3)=CCC12 (stereo partly drawn) [Compound 279, (3S,10R,13S)-17-(5-(difluoromethyl)pyridin-3-yl)-10,13-dimethyl-2,3,4,7,8,9,10,11,12,13,14,15-dodecahydro-1H-cyclopenta[a]phenanthren-3-ol] | < 11 | < 15 | – | > 50 | > 50 | – |
| C[C@]12CC[C@H]3[C@@H](CC4CC45C[C@@H](O)CC[C@]35C)[C@@H]1CC=C2c1cccnc1 (single isomer, unassigned) [Compound 317] | < 11 | < 15 | – | > 50 | 1 to 50 | – |
| C[C@]12CCC3C(CC(F)C4(O)C[C@@H](O)CC[C@]34C)C1CC=C2c1cncc(F)c1 (stereo partly drawn) [Compound 321, (3S,10R,13S)-6-fluoro-17-(5-fluoropyridin-3-yl)-10,13-dimethyl-2,3,4,5,6,7,8,9,10,11,12,13,14,15-tetradecahydro-1H-cyclopenta[a]phenanthrene-3,5-diol] | < 11 | < 15 | – | > 50 | 1 to 50 | – |
| C[C@]12CC(O)CC1CCC1C2CC[C@]2(C)C(c3cncc(F)c3)=CCC12 (stereo partly drawn) [Compound 398, (3aS,5aS)-6-(5-fluoropyridin-3-yl)-3a,5a-dimethyl-1,2,3,3a,3b,4,5,5a,8,8a,8b,9,10,10a-tetradecahydrodicyclopenta[a,f]naphthalen-2-ol] | < 11 | < 15 | – | 10 to 50 | > 50 | – |
| CC1CC2C(CC[C@]3(C)C(c4cncc(F)c4)=CCC23)[C@@]2(C)CCC(=O)C=C12 (stereo partly drawn) [Compound 342, (10R,13S)-17-(5-fluoropyridin-3-yl)-6,10,13-trimethyl-6,7,8,9,10,11,12,13,14,15-decahydro-1H-cyclopenta[a]phenanthren-3(2H)-one] | < 11 | < 15 | > 100 | > 50 | – | – |
| C[C@]12CCNC(=O)C=C1CCC1C2CC[C@]2(C)C(c3cncc(C(F)F)c3)=CCC12 (stereo partly drawn) [Compound 386, (5aR,7aS)-8-(5-(difluoromethyl)pyridin-3-yl)-5a,7a-dimethyl-3,4,5,5a,5b,6,7,7a,10,10a,11,12-dodecahydrocyclopenta[5,6]naphtho[1,2-d]azepin-2(10bH)-one] | < 11 | < 15 | – | > 50 | 1 to 50 | – |
| CC1C[C@@H]2[C@H](CC[C@]3(C)C(c4cccnc4)=CC[C@@H]23)[C@@]2(C)C=CC(=O)C=C12 (stereo partly drawn) [Compound 318, (10R,13S)-6,10,13-trimethyl-17-(pyridin-3-yl)-6,7,8,9,10,11,12,13,14,15-decahydro-3H-cyclopenta[a]phenanthren-3-one] | – | < 15 | < 10 | > 50 | 1 to 50 | – |
| C[C@]12CCC(=O)C=C1C1CC1[C@@H]1[C@@H]2CC[C@]2(C)C(c3cncc(F)c3)=CC[C@@H]12 (stereo partly drawn) [Compound 330, (4aR,6aS)-7-(5-fluoropyridin-3-yl)-4a,6a-dimethyl-4,4a,4b,5,6,6a,9,9a,9b,9c,10,10a-dodecahydrocyclopenta[a]cyclopropa[l]phenanthren-2(3H)-one] | < 11 | < 15 | – | > 50 | 1 to 50 | – |
| C=C1C[C@@H]2[C@H](CC[C@]3(C)C(c4cncc(F)c4)=CC[C@@H]23)[C@@]2(C)C=CC(=O)C=C12 [Compound 320, (10R,13S)-17-(5-fluoropyridin-3-yl)-10,13-dimethyl-6-methylene-6,7,8,9,10,11,12,13,14,15-decahydro-3H-cyclopenta[a]phenanthren-3-one] | < 11 | < 15 | > 100 | – | 1 to 50 | – |
| COc1cncc(C2=CC=C3[C@@H]4CC=C5C[C@@H](O)CC[C@]5(C)[C@H]4CC[C@]23C)c1 [Compound 81, (3S,10R,13S)-17-(5-methoxypyridin-3-yl)-10,13-dimethyl-2,3,4,7,8,9,10,11,12,13-decahydro-1H-cyclopenta[a]phenanthren-3-ol] | – | – | – | – | > 50 | IC50 ([1]; DHEA by ELISA, read-out: Biological Example No. 4: CYP17 enzymatic assay IC50): < 11 nM; inhibition at 0.01 µM [5]: > 80%; IC50 (CYP17 (H295R cells); H295R cells, testosterone by ELISA, 24 hours, read-out: Biological Example No. 7: CYP17 cellular assay IC50): < 15 nM |
| CC1CC2C3=CC=C(c4cncc(F)c4)[C@@]3(C)CCC2[C@@]2(C)CCC(=O)C=C12 (stereo partly drawn) [Compound 327, (10R,13S)-17-(5-fluoropyridin-3-yl)-6,10,13-trimethyl-6,7,8,9,10,11,12,13-octahydro-1H-cyclopenta[a]phenanthren-3(2H)-one] | – | – | < 10 | 10 to 50 | 1 to 50 | IC50 (CYP17 (H295R cells)): < 15 nM |
